Experimental data reported in paper PMC5467912, “Asymmetric regulation of quorum-sensing receptors drives autoinducer-specific gene expression programs in Vibrio cholerae” (PLoS Genetics, 2017).
Several values for one entry are separate records, joined by “and”; a condition that tells them apart may be missing. Identical values can stand only once. Like-named read-outs stand apart in the source and are kept apart here.

Assays:
[1] = system: CqsS C170Y; conditions: cited from earlier work
[2] = system: QS-controlled luxCDABE operon; format: cell-based; conditions: for Light production: LuxS-CqsA- +CAI-1 5 μM; for RLU: Strain AH371
[3] = system: CqsS F162A; conditions: cited from earlier work
[4] = system: T1, WT CqsS; format: biochemical; conditions: for % Total Phosphorylation: CqsS WT
T1 construct: made in house; host or cells: E. coli C43 (DE3), pET21b; used as inverted membrane vesicles

[5] = system: hapA; format: cell-based; conditions: ΔcqsA ΔluxS strain, HCD

CCCCCCCCCC(=O)[C@@H](O)CC [CAI-1, (S)-3-hydroxytridecan-4-one]
response of CqsS variant to CAI-1 [1]: do not respond
Light production ([2]; OD600 0.0198): 6464646 RLU
Light production ([2]; OD600 0.0375): 5626666 RLU
Light production ([2]; OD600 0.256): 957031 RLU
Light production ([2]; OD600 0.663): 472096 RLU
Light production ([2]; OD600 0.982): 378819 RLU
Light production ([2]; OD600 1.101): 133515000 RLU
RLU ([2]; agonist 0.0476837 nM): 5.19E+03 RLU and 2.61E+03 RLU
RLU ([2]; agonist 0.762939 nM): 2.58E+03 RLU and 5.16E+03 RLU and 2.67E+03 RLU
RLU ([2]; agonist 3.05176 nM): 5.00E+03 RLU and 2.56E+03 RLU and 2.61E+03 RLU
RLU ([2]; agonist 48.8281 nM): 1.58E+04 RLU and 1.61E+04 RLU and 1.60E+04 RLU
RLU ([2]; agonist 195.312 nM): 2.98E+05 RLU and 2.86E+05 RLU and 2.15E+05 RLU
RLU ([2]; agonist 781.25 nM): 3.60E+06 RLU and 4.20E+06 RLU and 3.87E+06 RLU
RLU ([2]; agonist 3125 nM): 1.30E+07 RLU and 1.41E+07 RLU and 1.40E+07 RLU
RLU ([2]; agonist 12500 nM): 1.88E+07 RLU and 2.11E+07 RLU and 2.10E+07 RLU
RLU ([2]; agonist 50000 nM): 1.88E+07 RLU and 1.96E+07 RLU and 1.89E+07 RLU
increase in light production ([2]; saturating autoinducer, HCD, vs untreated ΔcqsA ΔluxS): 100,000 fold
response of CqsS variant to CAI-1 [3]: do not respond
% Total Phosphorylation ([4]; Agonist 0.01 uM): 102.493% and 101.697% and 101.306%
% Total Phosphorylation ([4]; Agonist 0.1 uM): 89.3767% and 102.409% and 93.98%
% Total Phosphorylation ([4]; Agonist 0.5 uM): 97.7615% and 100.304% and 88.309% and 81.2302% and 104.248% and 84.8997% and 78.17% and 83.6501%
% Total Phosphorylation ([4]; Agonist 1 uM): 89.5575% and 94.3418% and 94.4031% and 65.5157% and 64.6244%
% Total Phosphorylation ([4]; Agonist 2.5 uM): 63.4493% and 51.2966% and 78.14% and 56.8331% and 55.38%
% Total Phosphorylation ([4]; Agonist 5 uM): 72.2411% and 75.0851% and 56.1286% and 43.0708% and 37.87% and 49.5683%
% Total Phosphorylation ([4]; Agonist 75 uM): 26.5628% and 23.1908% and 29.77% and 22.6184%
% Total Phosphorylation ([4]; Agonist 500 uM): 13.8148% and 19.6183% and 26.8103% and 17.4064%
% Total Phosphorylation ([4]; Agonist 1000 uM): 22.144% and 17.5686%
inhibition of WT CqsS autophosphorylation ([4]; saturating concentration (Fig 7B)): 80%
increase in hapA expression [5]: over 50 fold
